“And” between values parts separate entries of the source, which are not always exact repeats. Identical values can stand only once. Inconclusive results and toxic doses are left out.

The subject of this experiment is L1210 leukemia ip in BDF1 mice, survival T/C. As to the kind of experiment: NCI In Vivo Anticancer Drug Screen. Data for tumor model L1210 Leukemia (intraperitoneal) in B6D2F1 (BDF1) mice. As to conditions: endpoint: mean survival time, higher = longer survival. The method, boiled down: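 Mice bearing the transplanted tumor received compound or vehicle. Survival of the treated group was divided by that of the vehicle-treated control group to give the ratio.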

The mark [1] stands for this setting: dose: 100.0 mg/kg/injection, schedule: Q04DX003 (ip), vehicle: saline.
Where [2] appears, read: dose: 200.0 mg/kg/injection, schedule: Q04DX003 (ip), vehicle: saline.
[3] abbreviates: dose: 400.0 mg/kg/injection, schedule: Q04DX003 (ip), vehicle: saline.
Where [4] appears, read: dose: 100.0 mg/kg/injection, schedule: Q04DX003 (ip), vehicle: Klucel (hydroxypropylcellulose) (HPC).
Where [5] appears, read: dose: 200.0 mg/kg/injection, schedule: Q04DX003 (ip), vehicle: Klucel (hydroxypropylcellulose) (HPC).
Where [6] appears, read: dose: 400.0 mg/kg/injection, schedule: Q04DX003 (ip), vehicle: Klucel (hydroxypropylcellulose) (HPC).
Setting [7] is: dose: 50.0 mg/kg/injection, schedule: Q01DX009 (ip), vehicle: saline with Tween-80.
Setting [8] is: dose: 100.0 mg/kg/injection, schedule: Q01DX009 (ip), vehicle: saline with Tween-80.
Where [9] appears, read: dose: 200.0 mg/kg/injection, schedule: Q01DX009 (ip), vehicle: saline with Tween-80.
Where [10] appears, read: dose: 100.0 mg/kg/injection, schedule: Q01DX001 (ip), vehicle: saline.
Where [11] appears, read: dose: 200.0 mg/kg/injection, schedule: Q01DX001 (ip), vehicle: saline.
Setting [12] is: dose: 400.0 mg/kg/injection, schedule: Q01DX001 (ip), vehicle: saline.
The mark [13] stands for this setting: dose: 100.0 mg/kg/injection, schedule: Q04DX002 (ip), vehicle: saline with Tween-80.
The mark [14] stands for this setting: dose: 200.0 mg/kg/injection, schedule: Q04DX002 (ip), vehicle: saline with Tween-80.
Where [15] appears, read: dose: 100.0 mg/kg/injection, schedule: Q04DX003 (ip), vehicle: saline with Tween-80.
Where [16] appears, read: dose: 200.0 mg/kg/injection, schedule: Q04DX003 (ip), vehicle: saline with Tween-80.
The mark [17] stands for this setting: dose: 400.0 mg/kg/injection, schedule: Q04DX003 (ip), vehicle: saline with Tween-80.

For the molecule `CO/C(N)=N\C(=O)NC1CC(OC(=O)c2ccc(C)cc2)C(COC(=O)c2ccc(C)cc2)O1` (centres undefined), the T/C under setting [1] is 98 % of control, the T/C under setting [2] was 104 % of control and the T/C under setting [3] is 96 % of control.

As to `CCCCCCCCCCCCCCCCC(=O)O.[Pb]`, the T/C reads like this: (dose: 75.0 mg/kg/injection, schedule: Q01DX001 (ip), vehicle: other) 94 % of control; (dose: 150.0 mg/kg/injection, schedule: Q01DX001 (ip), vehicle: other) 92 % of control; (dose: 300.0 mg/kg/injection, schedule: Q01DX001 (ip), vehicle: other) 92 % of control.

`COC1=CC=C2C3Cc4ccc(OC)c(O)c4C2(C1)CN3C` (centres undefined): the T/C (dose: 100.0 mg/kg/injection, schedule: Q04DX003 (ip), vehicle: other) is 96 % of control.

Take `CN(C)CCOC(=O)c1ccc(C=O)cc1`: the T/C is 105 % of control (dose: 100.0 mg/kg/injection, schedule: Q04DX002 (ip), vehicle: saline); 110 % of control (dose: 200.0 mg/kg/injection, schedule: Q04DX002 (ip), vehicle: saline); 90 % of control (dose: 400.0 mg/kg/injection, schedule: Q04DX002 (ip), vehicle: saline).

On to `CC(C)C1(O)C=CC(C)(O)CC1` (centres undefined), for which the T/C is, setting by setting: under setting [1], 102 % of control; under setting [2], 102 % of control; under setting [3], 107 % of control.

Regarding `CC(C)(C)c1cc(-c2cc(C(C)(C)C)c(O)c(C(C)(C)C)c2)cc(C(C)(C)C)c1O`, the T/C was 104 % of control under setting [4], 107 % of control under setting [5] and 98 % of control under setting [6].

Turning to `CC1CN=C(c2ccc(NC(=O)NCCCNC(=O)Nc3ccc(C4=NCC(C)N4)cc3)cc2)N1` (centres undefined), where the note is “dose: 30.0 mg/kg/injection, schedule: Q01DX015 (ip), vehicle: methylcellulose (MC)”, the T/C was 150 % of control.

As for `COc1cc2c(cc1O)C(OC)(OC)CCCC2`, the T/C is, setting by setting: under setting [7], 96 % of control; under setting [8], 96 % of control; under setting [9], 93 % of control.

As to `C1Cc2c3c4c(c5c2C(C1)CCC5)CCCC4CCC3`, the T/C was 97 % of control under setting [10], 94 % of control under setting [11] and 91 % of control under setting [12].

In the case of `CC(O)c1ccc2c(c1)Nc1ccccc1S2` (centres undefined), the T/C is 91 % of control under setting [13]; 105 % of control under setting [14]; 91 % of control (dose: 400.0 mg/kg/injection, schedule: Q04DX002 (ip), vehicle: saline with Tween-80).

In the case of `Cc1nc(N)nc(N)c1Cc1ccc(N=[N+]=[N-])cc1`, the T/C is 98 % of control (dose: 25.0 mg/kg/injection, schedule: Q04DX002 (ip), vehicle: saline with Tween-80) and 113 % of control (dose: 50.0 mg/kg/injection, schedule: Q04DX002 (ip), vehicle: saline with Tween-80).

Regarding `CC(Oc1ccccc1)C(=O)NC(=S)Nc1ccc(Cl)cc1` (centres undefined), the T/C is 97 % of control (dose: 50.0 mg/kg/injection, schedule: Q01DX001 (ip), vehicle: saline with Tween-80); 97 % of control and 98 % of control and 92 % of control under setting [7]; 98 % of control (dose: 50.0 mg/kg/injection, schedule: Q04DX003 (ip), vehicle: saline with Tween-80); 97 % of control (dose: 100.0 mg/kg/injection, schedule: Q01DX001 (ip), vehicle: saline with Tween-80); 97 % of control and 98 % of control and 101 % of control under setting [8]; 97 % of control under setting [15]. Moreover, the T/C was 92 % of control (dose: 200.0 mg/kg/injection, schedule: Q01DX001 (ip), vehicle: saline with Tween-80) and 109 % of control under setting [16].

With `ClC1(Cl)C2CC(C3C4C=CC(C4)C32)C1(Cl)Cl` (centres undefined), the T/C runs as follows: (dose: 50.0 mg/kg/injection, schedule: Q01DX001 (ip), vehicle: carboxymethylcellulose (CMC)) 88 % of control; (dose: 400.0 mg/kg/injection, schedule: Q01DX001 (ip), vehicle: carboxymethylcellulose (CMC)) 101 % of control.

In the case of `O=C(N/N=C\c1c(O)ccc2ccccc12)c1ccncc1`, the T/C is 106 % of control under setting [4], 101 % of control under setting [5] and 108 % of control under setting [6].

`C=CCNC(=O)Nc1cccc(OC(=O)NC(C)(C)C)c1`: the T/C by setting is: under setting [15], 94 % of control; under setting [16], 94 % of control; under setting [17], 94 % of control.

Turning to `CCC(COC(=O)c1ccccc1)NC1CCCC1` (centres undefined), the T/C is 102 % of control (dose: 75.0 mg/kg/injection, schedule: Q01DX001 (ip), vehicle: saline); 103 % of control (dose: 150.0 mg/kg/injection, schedule: Q01DX001 (ip), vehicle: saline); 111 % of control (dose: 300.0 mg/kg/injection, schedule: Q01DX001 (ip), vehicle: saline).

On to `O=C(CCCCl)CC(O)(C(F)(F)F)C(F)(F)F`, for which the T/C reads like this: under setting [8], 104 % of control; under setting [15], 101 % of control; under setting [9], 93 % of control; under setting [16], 94 % of control; under setting [17], 100 % of control.

In the case of `Cn1c(=O)c2c(nc(CCCCCCCc3nc4c(c(=O)n(C)c(=O)n4C)n3C)n2C)n(C)c1=O`, the T/C reads like this: under setting [10], 98 % of control; under setting [11], 98 % of control; under setting [12], 98 % of control.

`Cc1ccc(C(=O)CCN2CCOCC2)cc1C`: the T/C is 93 % of control under setting [1] and 91 % of control under setting [2].

Turning to `C(=C\CSc1ccccc1)/CSc1ccccc1`, the T/C (dose: 100.0 mg/kg/injection, schedule: Q04DX002 (ip), vehicle: Klucel (hydroxypropylcellulose) (HPC)) was 97 % of control; the T/C (dose: 200.0 mg/kg/injection, schedule: Q04DX002 (ip), vehicle: Klucel (hydroxypropylcellulose) (HPC)) is 94 % of control; the T/C (dose: 400.0 mg/kg/injection, schedule: Q04DX002 (ip), vehicle: Klucel (hydroxypropylcellulose) (HPC)) is 97 % of control.

Take `CCCCCOC(=O)C#CC(=O)OCCCCC`: the T/C by setting is: (dose: 1.56 mg/kg/injection, schedule: Q01DX009 (ip), vehicle: carboxymethylcellulose (CMC)) 92 % of control and 101 % of control; (dose: 3.13 mg/kg/injection, schedule: Q01DX009 (ip), vehicle: carboxymethylcellulose (CMC)) 108 % of control and 89 % of control; (dose: 12.5 mg/kg/injection, schedule: Q01DX009 (ip), vehicle: carboxymethylcellulose (CMC)) 89 % of control; (dose: 12.5 mg/kg/injection, schedule: Q04DX003 (ip), vehicle: carboxymethylcellulose (CMC)) 98 % of control; (dose: 25.0 mg/kg/injection, schedule: Q04DX003 (ip), vehicle: carboxymethylcellulose (CMC)) 98 % of control; (dose: 50.0 mg/kg/injection, schedule: Q01DX009 (ip), vehicle: carboxymethylcellulose (CMC)) 89 % of control. Also, the T/C was 96 % of control and 100 % of control (dose: 50.0 mg/kg/injection, schedule: Q04DX003 (ip), vehicle: carboxymethylcellulose (CMC)); 97 % of control and 106 % of control (dose: 100.0 mg/kg/injection, schedule: Q04DX002 (ip), vehicle: carboxymethylcellulose (CMC)); 95 % of control and 97 % of control (dose: 200.0 mg/kg/injection, schedule: Q04DX002 (ip), vehicle: carboxymethylcellulose (CMC)).

Consider `O=C(CCCN1CCC(O)(c2ccc(C(F)(F)F)cc2)CC1)c1ccc(N2CCC(O)CC2)cc1`, for which the T/C reads like this: under setting [13], 93 % of control; under setting [14], 100 % of control.

For the molecule `CCOC(CN(Cc1ccc(OCc2ccccc2)c(OC)c1)S(=O)(=O)c1ccc(C)cc1)OCC`, the T/C (dose: 25.0 mg/kg/injection, schedule: Q01DX009 (ip), vehicle: water) was 102 % of control; the T/C (dose: 50.0 mg/kg/injection, schedule: Q01DX009 (ip), vehicle: water) was 91 % of control; the T/C (dose: 100.0 mg/kg/injection, schedule: Q01DX009 (ip), vehicle: water) is 105 % of control; the T/C (dose: 200.0 mg/kg/injection, schedule: Q01DX009 (ip), vehicle: water) is 102 % of control; the T/C (dose: 400.0 mg/kg/injection, schedule: Q01DX009 (ip), vehicle: water) was 100 % of control.

`CCCCCNS(=O)(=O)CCCC`: the T/C is, setting by setting: (dose: 100.0 mg/kg/injection, schedule: Q04DX002 (ip), vehicle: other) 111 % of control; (dose: 200.0 mg/kg/injection, schedule: Q04DX002 (ip), vehicle: other) 96 % of control; (dose: 400.0 mg/kg/injection, schedule: Q04DX002 (ip), vehicle: other) 103 % of control.

The record behind these values is PubChem BioAssay AID248 (DTP/NCI, 2004).
